Test results taken from paper PMC9943626, “CS27109, A Selective Thyroid Hormone Receptor-β Agonist Alleviates Metabolic-Associated Fatty Liver Disease in Murine Models” (International Journal of Endocrinology, 2023).

Columns and labels:
THR-β = biological target: T1, THR-β (Homo sapiens, UniProt P10828); experiment: Luciferase reporter gene assay, THR-β; format: cell-based
T1 construct: expressed in transfected cells; host or cells: CV-1 cells
T1 sequence (P10828 1-461): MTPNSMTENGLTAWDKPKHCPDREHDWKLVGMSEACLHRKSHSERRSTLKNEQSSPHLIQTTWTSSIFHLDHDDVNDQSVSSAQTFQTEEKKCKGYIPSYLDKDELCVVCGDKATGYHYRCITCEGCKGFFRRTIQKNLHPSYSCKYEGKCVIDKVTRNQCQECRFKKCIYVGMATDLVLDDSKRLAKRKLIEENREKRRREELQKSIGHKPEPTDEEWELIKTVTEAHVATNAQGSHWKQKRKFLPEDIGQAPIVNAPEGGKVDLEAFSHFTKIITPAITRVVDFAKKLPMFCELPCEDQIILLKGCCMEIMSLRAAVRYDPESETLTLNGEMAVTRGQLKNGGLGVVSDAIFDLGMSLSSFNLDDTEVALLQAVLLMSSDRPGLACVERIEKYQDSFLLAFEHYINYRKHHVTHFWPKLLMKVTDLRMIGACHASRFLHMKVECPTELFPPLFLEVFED
Experimental: (§1) We applied a luciferase reporter gene assay to assess the capacity of drugs to bind and activate THRα or THRβ. First, we seeded 5 × 10^3 CV-1 cells for each well into 96-well plates and incubated for 24 hours at 37°C and 5% CO2. We then transiently transfected mixed THR-α or THR-β expression plasmids (with DR4) into liposomes with a firefly luciferase reporter (2 : 2 : 1, THRα : DR4 : GFP or 3 : 3 : 1, THRβ : DR4 : GFP) and then mixed with the X-tremeGENE HP DNA Transfection Reagent (Roche, Basel, BS, Switzerland). […] We then removed the medium and added 60 μl of 1x Cell Culture Lysis and 5x reagent (Promega, E153A) to each well. […] Finally, we added 30 μl of Luciferase Assay Buffer (Promega, E151A) to each well to detect Luci values. 50% activation (AC50) for each compound was calculated based on these values.

THR-α = biological target: T2, THR-α (Homo sapiens, UniProt P10827); experiment: Luciferase reporter gene assay, THR-α; format: cell-based; conditions: CV-1 cells transfected with THR-α, DR4 luciferase reporter, 22 hours
T2 construct: expressed in transfected cells; host or cells: CV-1 cells
T2 sequence (P10827 1-410 isoform P10827-2): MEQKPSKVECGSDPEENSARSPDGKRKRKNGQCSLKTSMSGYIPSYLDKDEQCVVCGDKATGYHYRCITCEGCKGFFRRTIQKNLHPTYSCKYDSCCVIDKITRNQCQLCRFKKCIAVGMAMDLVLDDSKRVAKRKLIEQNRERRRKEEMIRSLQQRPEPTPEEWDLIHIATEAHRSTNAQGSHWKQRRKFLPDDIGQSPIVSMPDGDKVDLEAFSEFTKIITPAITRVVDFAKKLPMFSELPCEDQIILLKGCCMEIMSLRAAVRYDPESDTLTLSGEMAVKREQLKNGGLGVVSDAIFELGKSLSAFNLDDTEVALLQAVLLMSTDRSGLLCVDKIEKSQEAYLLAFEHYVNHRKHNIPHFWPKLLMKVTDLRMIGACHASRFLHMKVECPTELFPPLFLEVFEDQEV
Experimental: as §1

hERG = biological target: T3, hERG (Homo sapiens, UniProt Q12809); experiment: hERG test (QPatch HTX); format: cell-based
T3 construct: Ice Bioscience Co., Ltd. (Beijing, China)
T3 sequence (Q12809 whole entry): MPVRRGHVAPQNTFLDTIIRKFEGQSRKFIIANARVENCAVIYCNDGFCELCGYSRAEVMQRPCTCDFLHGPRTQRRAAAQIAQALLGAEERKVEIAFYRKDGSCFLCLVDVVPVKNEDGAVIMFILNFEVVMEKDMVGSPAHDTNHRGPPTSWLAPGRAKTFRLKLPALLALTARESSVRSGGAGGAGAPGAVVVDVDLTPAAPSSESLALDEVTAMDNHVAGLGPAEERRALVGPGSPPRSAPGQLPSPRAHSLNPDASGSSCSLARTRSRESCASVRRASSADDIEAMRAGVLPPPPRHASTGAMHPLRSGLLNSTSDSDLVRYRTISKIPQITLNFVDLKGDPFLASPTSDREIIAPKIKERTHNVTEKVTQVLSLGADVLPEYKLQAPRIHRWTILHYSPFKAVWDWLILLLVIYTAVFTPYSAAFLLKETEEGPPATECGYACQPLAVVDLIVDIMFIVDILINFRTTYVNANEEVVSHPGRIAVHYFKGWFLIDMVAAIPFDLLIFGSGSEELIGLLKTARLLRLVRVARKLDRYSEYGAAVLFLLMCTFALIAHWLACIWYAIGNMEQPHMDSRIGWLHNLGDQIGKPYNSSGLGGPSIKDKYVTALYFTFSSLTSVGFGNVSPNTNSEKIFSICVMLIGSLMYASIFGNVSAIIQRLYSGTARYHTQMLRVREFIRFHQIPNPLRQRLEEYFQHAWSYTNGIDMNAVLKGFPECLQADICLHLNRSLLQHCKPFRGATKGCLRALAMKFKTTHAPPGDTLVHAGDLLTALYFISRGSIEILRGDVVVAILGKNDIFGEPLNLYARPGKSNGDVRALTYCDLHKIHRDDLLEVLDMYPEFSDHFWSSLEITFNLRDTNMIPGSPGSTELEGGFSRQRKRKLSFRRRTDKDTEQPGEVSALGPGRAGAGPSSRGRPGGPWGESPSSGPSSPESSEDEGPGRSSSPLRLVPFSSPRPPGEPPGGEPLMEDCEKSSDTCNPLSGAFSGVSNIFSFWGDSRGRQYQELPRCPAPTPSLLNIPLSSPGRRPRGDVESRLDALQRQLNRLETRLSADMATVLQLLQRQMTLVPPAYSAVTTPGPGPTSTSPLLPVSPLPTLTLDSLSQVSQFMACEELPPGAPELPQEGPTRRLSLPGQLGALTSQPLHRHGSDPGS
Experimental: hERG test was performed by Ice Bioscience Co., Ltd. (Beijing, China) using the QPatch HTX method according to the manufacturer's instruction. 5 doses of CS27109 were tested, including […], each one with a duplicate. The tested values (current) were normalized to the negative control (0.1% DMSO), and IC50 was calculated based on the normalized data.

PK in the mouse = format: in vivo, C57/B6 mouse
Experimental: Blood was collected for each mouse 0.5, 1, 2, 3, 4, 6, 8, 24, and 30 hours (H) after compound administration. Then, the serum was isolated and an extractant (containing 200 ng/ml methanol) was added to the serum. Samples were assessed by liquid chromatography-tandem mass spectrometry (LC-MS/MS) according to the standard procedure.

WD + CCL4 model = system: WD + CCL4 model; design: method as in earlier work; conditions: CCL4 induction started at week 8 (8 weeks in total), drug began 4-week after CCL4 induction; CS27109 alone; ref our another study (manuscript is submitting to another journal); cited from earlier work
PK in the rat = format: in vivo, SD rat; conditions: 10 mg/kg oral gavage once

| SMILES | AC50 (THR-β; CV-1 cells transfected with THR-β, DR4 luciferase reporter, 22 hours) [µM] | Selectivity (α/β) (THR-β; THR-α/THR-β AC50 ratio) | AC50 (THR-α) [µM] | IC50 (hERG) [µM] | hERG test result (hERG) | PK properties in mouse (comparison of CS27109 and MGL3196) (PK in the mouse; 10 mg/kg oral gavage once) | AUC in mouse relative to AUC in rat (PK in the mouse; 10 mg/kg oral, mouse higher than rat) [fold] | liver fibrosis (WD + CCL4 model) | PK properties in rat (compared with CS27109) (PK in the rat) |
| --- | --- | --- | --- | --- | --- | --- | --- | --- | --- |
| N#Cc1nn(-c2cc(Br)c(Oc3n[nH]c(=O)c4ccccc34)c(Br)c2)c(=O)[nH]c1=O [CS27109] | 1.98 | 12.67 | 25.1 | > 30 | cardiac tolerable | comparative PK properties | 1.5 | sufficient to reverse liver fibrosis |  |
| CC(C)c1cc(Oc2c(Cl)cc(-n3nc(C#N)c(=O)[nH]c3=O)cc2Cl)n[nH]c1=O [MGL3196, 2-[3,5-dichloro-4-(5-isopropyl-6-oxo-1,6-dihydropyridazin-3-yloxy)phenyl]-3,5-dio xo-2,3,4,5-tetrahydro[1,2,4]triazine-6-carbonitrile, reference compound] |  |  |  |  |  |  |  |  | slightly higher PK properties |
